In test [1] the test system is Human melanoma A375 cells. Description: Human melanoma A375 subcutaneous xenograft in BALB/c nude mice, intratumoral injection of polypeptides. In kind it is in vivo. Here is the method: Human melanoma A375 cells in the logarithmic phase of growth were cultured under sterile conditions to prepare a 5×10^6/200 μL cell suspension, and 200 μL cell suspension was separately injected into BALB/c nude mice subcutaneously. An electronic digital vernier caliper was used to measure the long-axis and short-axis diameters of the transplanted tumors, and the formula: Tumor Volume (TV)=½×Long-axis Diameter×Short-axis Diameter^2 was used to calculate the volume of the tumors. The mice were randomly grouped when the tumor volume reach about 100 mm^3.
Polypeptides JWA-1, JWA-2, JWA-3, and an equivalent peptide blend (Pep) of the three polypeptides were injected into the tumors of the various groups of mice respectively, and the doses used were 25 mg/kg and 10 mg/kg, respectively; the negative control group was injected with an equal amount of sterile phosphate-buffered saline (PBS). The polypeptide injection groups and the control group were administered on alternate days (48 hrs interval) by injection for 5 times; and the body weight of the mice and their tumor diameters were measured at each administration. After completion of the experiment the mice were sacrificed after anesthesia, tumors were separated from the bodies and their weight were measured.
In this example, the method for dorsal subcutaneous tumor bearing of BALB/c nude mice by inoculation of A375 cells is the same as Example 2.
The aforementioned BALB/c nude mice inoculated with human melanoma A375 cells by intratumoral injection were separately treated using polypeptide JWA-1 of low dose (5 mg/kg), medium dose (10 mg/kg) and high dose (15 mg/kg); at the same time, a sterile PBS negative control group and a 10 mg/kg non-pep injection group (referred to simply as “non-pep group”, the polypeptide sequence used was SEQ ID NO: 14; […]-EEMQR, the N-terminus thereof being acetylated and the C-terminus thereof amidated) were established. The establishment of the non-pep group was for observing whether JWA polypeptides have any specific anti-tumor effect.
To verify the impact of phosphorylation of S in polypeptide JWA-1 on the anti-tumor effect thereof, a non-phosphorylated polypeptide JWA-7 injection group (10 mg/kg) was added in the aforementioned experiment.
The various groups were administered by intratumoral injection on alternate days for 5 times consecutively; and the body weight of the mice and their tumor diameters were measured at each administration. After completion of the experiment the mice were sacrificed after anesthesia, tumors were separated from the bodies and the tumor weights were measured.
The BALB/c nude mice inoculated with human melanoma A375 cells were separately treated using 10 mg/kg polypeptides JWA-1, JWA-4, JWA-5, and JWA-6; at the same time, a 10 mg/kg non-pep injection group (referred to simply as “non-pep group”, the polypeptide sequence used was the same as Example 3) was established.
The mice with transplanted tumors in this example were the same as Example 2, and the experimental method used therein was also the same as Example 2. The various polypeptides were administered by intratumoral injection at a dose of 10 mg/kg, and a non-pep injection group (referred to simply as “non-pep group”, the polypeptide sequence used was the same as Example 3) was established.

Test [2] concerns A375 cells. The experiment in a line: Western Blot of apoptosis-related molecules (PARP-1, caspase-3) in A375 cells. Type of test: cell-based, human. The note with it: A375, 24 hrs. The method, then: (§1) The combined effect of ATO and polypeptide JWA-6 on the self-destruction of protein expression was also determined A375 cells in the logarithmic phase of growth were conventionally digested and 5×10^5 cells were inoculated evenly in a 60 mm cell culture dish, and different doses of ATO were used to individually treat the cells for 24 hrs, or different doses of ATO in combination with different doses of polypeptide JWA-6 were used to treat the cells for 24 hrs, after which 0.18 mL of RIPA lysis buffer containing 0.5% phenylmethanesulfonyl fluoride (PMSF) was added to extract protein. After centrifugation at 12000×g for 15 minutes, the supernatant was taken, protein concentration was examined. Based on the molecular weight measured, a polyacrylamide gel having a suitable concentration was chosen for protein electrophoresis where each well was added with […] of protein, and the conditions for electrolysis were 60 V, 30 minutes and 90 V, 1-1.5 hrs. After completion of the electrolysis, semi-dry transfer was performed to transfer the protein from the gel onto a polyvinylidene difluoride (PVDF) membrane. After completion of the transfer, the membrane was blocked with 5% skim milk at room temperature for 1-2 hrs. Then, the membrane was washed 3 times (each lasting 5 minutes) using Tris-buffered Saline with Tween (TBST) containing 0.1% Tween-20, and incubation of the corresponding antibody was performed overnight at 4° C. On the next day, membrane was washed 3 times (each lasting 5 minutes) using Tris-buffered Saline with Tween (TBST) containing 0.1% Tween-20; incubation of secondary antibody was performed at room temperature for 1-2 hrs; and again membrane was washed 8 times (each lasting 5 minutes) using Tris-buffered Saline with Tween (TBST) containing 0.1% Tween-20. The membrane was added with enhanced chemiluminescence (ECL) liquid and exposed.
Polypeptide CPP-JWA-6 at a dose of 20 μM, 50 μM was applied individually and applied in combination with ATO (5 μM) on A375 cells (as shown in FIG. 40) and SGC7901 cells (as shown in FIG. 41) for 24 hrs before protein was extracted, and the Western Blot method of Example 7 was used to examine the changes in apoptosis-related molecules.

In a further test the test system is SGC7901 cells. Description: Western Blot of PARP-1 in SGC7901 cells. Type of test: cell-based. The note with it: 24 hrs. The method, then: as §1, with “exposed. […]” for “exposed.”
The subject of test [3] is Human Melanoma A375 Cells. Description: Cell proliferation with CCK8 reagent, A375 cells. Type of test: cell-based. To be noted: 0-50 μM, 24, 48 and 72 hrs, in comparison with the control group. The method, then: (§2) B16F10 or A375 cells in the logarithmic phase of growth were trypsinized and seeded in a 96-well plate (5×10^3 cells/well), and were treated with different doses (0 μM, 5 μM, 10 μM, 25 μM, 50 μM) of polypeptide JWA-1, JWA-5, JWA-6 or non-pep (the polypeptide sequence used was the same as Example 3) for 24 hrs, 48 hrs and 72 hrs, respectively. The original culture medium was removed from the 96 wells at the indicated time and cell proliferation was determined with CCK8 reagent according to the manufacturer's instructions. Four duplicate samples were taken from each group and the experiments were repeated for three times.

Test [4] concerns Mouse Melanoma B16F10 Cells. Description: Cell proliferation with CCK8 reagent, B16F10 cells. Type of test: cell-based. The note with it: 0-50 μM, 24, 48 and 72 hrs, in comparison with the control group. Here is the method:
as §2

Test [5] deals with A375 cells. Description: Cytoactivity of A375 cells treated with ATO alone or with polypeptides in combination with ATO. In kind it is cell-based, human. The note with it: polypeptide 50-500 μM in combination with ATO 0.5-5 μM, 24 and 48 hrs. Here is the method:
Firstly, the dose and time for treatment of A375 cells with ATO were determined. A375 cells in the logarithmic phase of growth were conventionally digested and seeded in a 96-well plate (5×10^3 cells/well), and different doses (5 μM, 10 μM, 25 μM, 50 μM) of ATO were used to treat the cells for 24 hrs and 48 hrs after cell attachment. It was discovered that the activity of A375 cells was reduced by 40% after 24 hrs of treatment with 5 μM ATO (as shown in FIG. 24), and that the cell growth inhibition rate was approximately 100% after 48 hrs of treatment with different doses of ATO (as shown in FIG. 25). Therefore, ATO with a concentration smaller than or equal to 5 μM was chosen to treat the cells for 24 hrs for subsequent reference of dose and time for combined medication.

In test [6] the test system is human melanoma A375 cells. The experiment in a line: Human melanoma A375 subcutaneous xenograft in NOD/SCID mice, intraperitoneal injection of polypeptides. Type of test: in vivo. The note with it: Example 5, alternate days, 5 times. From the text:
The polypeptide designed and synthesized in this example was JWA-6+RGD whose sequence was SEQ ID NO: 7, i.e. 6-aminocaproic acid-FPGSDRF-GGGG-RGD, wherein amino acid S was phosphorylated. In addition, the N-terminus of the polypeptide sequence was acetylated and the C-terminus thereof was amidated during synthesis to prevent rapid degradation of the polypeptide. In this example, non-obese diabetic/severe combined immunodeficiency (NOD/SCID) mice were chosen for tumor-bearing model and the method for dorsal subcutaneous tumor bearing by inoculation of human melanoma A375 cells is the same as Example 2. The mice were randomly divided into four treatment groups after the tumors grew to a volume of about 100 mm^3. […]
Then, 50 mg/kg polypeptide JWA-6, 10 mg/kg polypeptide JWA-6+RGD, 50 mg/kg polypeptide JWA-6+RGD, and 50 mg/kg non-pep (the polypeptide sequence used was the same as Example 3) were injected intraperitoneally. The various groups were administered with injection on alternate days for 5 times consecutively; and the body weight of the mice and their tumor diameters were measured at each administration. After completion of the experiment the mice were sacrificed after anesthesia, tumors were separated from the bodies and the tumor weights measured.
Thereafter, the tumor bearing mice were obtained using the foregoing method of this example and divided into seven injection groups which were intraperitoneally injected with polypeptides JWA-6+RGD, JWA-6+RGD0, JWA-6+RGD1, JWA-6+RGD3, JWA-6+RGD7, JWA-6+RGD10, and non-pep (the polypeptide sequence used was the same as Example 3) at a dose of 50 mg/kg. The various groups were administered by intraperitoneal injection on alternate days for 5 times consecutively; and the body weight of the mice and their tumor diameters were measured at each administration. The day of first administration was taken as the first day, and the experiment was stopped on the twelfth day when the mice were sacrificed after anesthesia, and tumors were separated from the bodies and the tumor weights were measured.

[7] abbreviates: 20, 50 μM polypeptide combined with ATO 5 μM, in comparison with ATO alone.
[8] abbreviates: polypeptide alone at a dose not exceeding 50 μM.
Setting [9] is: Example 3, 10 mg/kg intratumoral, alternate days, 5 times, 10 mg/kg.
[10] abbreviates: Example 4, 10 mg/kg intratumoral, alternate days, 5 times, compared among polypeptides.

Square brackets hold non-standard residues; d marks the D form. Ends that are not written are not given here. pS = N[C@@H](COP(=O)(O)O)C(=O)O; Ahx = NCCCCCC(=O)O

For the substance “6-aminoacetic acid-EEMQR [non-pep, reference compound]”, the tumor inhibition effect result in test [1] (Example 3, 10 mg/kg intratumoral, alternate days, 5 times) is given as “no tumor inhibition effect”.
As to “6-aminocaproic acid-(R)9—FPGSDRF ([Ahx]RRRRRRRRRFPG[pS]DRF) [CPP-JWA-6]”, the PARP-1 spliceosome entry in the test with A375 cells [2] (setting [7]) and in the test on SGC7901 cells (setting [7]) was “significantly increased” throughout. Besides, the caspase-3 spliceosome result in the test on A375 cells [2] (setting [7]) was “significantly increased”. In addition, the “changes in the expression of PARP-1” value in the test with A375 cells [2] (setting [8]) and with SGC7901 cells (setting [8]) was “will not cause any changes” in each case.
Regarding “6-aminocaproic acid-FFPGSDRFA [JWA-1] ([Ahx]FFPG[pS]DRFA)”, the “inhibition effect on subcutaneous tumor growth in nude mice” value in test [1] (Example 2, 10 mg/kg intratumoral, alternate days, 5 times, in comparison with PBS control group) is on record as “more significant”. Besides, the “tumor weight to body weight ratio” value in test [1] (Example 2, 10 mg/kg intratumoral, alternate days, 5 times, in comparison with PBS control group, P<0.05) is on record as “smaller”. Also, the tumor inhibition effect entry in test [1] (setting [9]) was “significant tumor inhibition effect”. The “dose-effect relation of tumor inhibition” value in test [1] (Example 3, 5, 10 and 15 mg/kg intratumoral) is “no trend of enhanced effect was detected along with dose increase”. For the same substance, in test [3], the “inhibition effect on A375 cells” value was “no inhibition effect”. For the same substance, the “inhibition effect on B16F10 cells” value in test [4] is given as “no inhibition effect”. Also, in the test on A375 cells [5], the “cytoactivity of A375 cells, combined use with ATO” value is “no synergistic effect”.
As to “6-aminocaproic acid-FFPGSDRFA [JWA-7] ([Ahx]FFPGSDRFA)”, the tumor inhibition effect entry in test [1] (setting [9]) is “no tumor inhibition effect”.
For the substance “6-aminocaproic acid-FPGSDRF-GGGG-RGD (Ac-[Ahx]FPG[pS]DRFGGGGRGD-NH2; SMILES CC(=O)NCCCCCC(=O)N[C@@H](Cc1ccccc1)C(=O)N1CCC[C@H]1C(=O)NCC(=O)N[C@@H](COP(=O)(O)O)C(=O)N[C@@H](CC(=O)O)C(=O)N[C@@H](CCCNC(=N)N)C(=O)N[C@@H](Cc1ccccc1)C(=O)NCC(=O)NCC(=O)NCC(=O)NCC(=O)N[C@@H](CCCNC(=N)N)C(=O)NCC(=O)N[C@@H](CC(=O)O)C(N)=O) [JWA-6+RGD]”, the values for the tumor inhibition effect result in test [6] (10 mg/kg intraperitoneal) and in test [6] (50 mg/kg intraperitoneal) were “a certain degree of tumor inhibition effect” and “better tumor inhibition effect”, respectively.
With 6-aminocaproic acid-GSD [JWA-4], the tumor inhibition effect entry in test [1] (setting [10]) is recorded as “significantly worse than that of polypeptide JWA-6”.
For “6-aminocaproic acid-PGSDR ([Ahx]PG[pS]DR) [JWA-5]”, the tumor inhibition effect result in test [1] (setting [10]) was “significantly worse than that of polypeptide JWA-6”. Moreover, in test [3], the “inhibition effect on A375 cells” value is listed as “no inhibition effect”. Further, the “inhibition effect on B16F10 cells” value in test [4] is “no inhibition effect”.

For the origin of these results see patent publication US9745345B2, “Anti-tumor polypeptides and method for preparing anti-tumor drugs comprisng the same” (priority 2013, dated 2017).
